Columns and labels:
Format in all cases: cell-based
[1] = test system: c-Myc; experiment: BRD4 human c-Myc ELISA assay in 22RV-1 cells; details: 22Rv1, 18 hours
Method: 6. BRD4 Human c-Myc ELISA Assay Protocol
22RV-1 cells were seeded at 30,000 cells/well at a volume of 75 μL/well in RPMI with 10% FBS media in 96-well plates and grown overnight at 37° C. Cells were dosed with compounds at 4× concentration diluted in 0.4% DMSO; compounds were serially diluted 1:3 for 8-point dose curve. Twenty-five (25) ul of the compounds was added to cells for a final concentration starting at 300 nM-0.3 nM or 1 uM-1 nM in 0.1% DMSO and incubated for 18 hours. Media was aspirated, cells were washed 1× with PBS and aspirated. Cells were lysed in 50 ul RIPA buffer (50 mM Tris pH8, 150 mM NaCl, 1% Tx-100, 0.1% SDS, 0.5% sodium deoxycholate) supplemented with protease and phosphatase inhibitors. Plates were incubated on ice for 15 minutes then centrifuged at 4° C. for 10 minutes at 4000 rpm. Fifty (50) ul of cleared lysate from a 96-well assay plate was added into 96-well c-myc ELISA plate (Novex, Life Technologies Catalog #KH02041). c-myc standard was reconstituted with standard diluent buffer; standard curve range of 333 pg/ml-0 pg/ml was prepared, diluted 1:2 for 8-point dose curve. The rest of the assay was performed following the protocol from the c-myc ELISA kit. Data was analyzed and plotted using GraphPad Prism software.

[2] = test system: estrogen receptor; experiment: ERE luciferase assay in T47D-KBluc cells; details: Homo sapiens, 24 hours, read-out: ER Target Engagement IC50
Method: 1. ERE Luciferase Assay for Compounds in Table 2
T47D-1(Bluc cells (ATCC® ECRL 2 65, T47D human breast cancer cells stably transfected with estrogen responsive element/promoter/luciferase reporter gene) were seeded into 96-well white opaque plates in IR: PM growth medium supplemented with 10% fetal bovine serum (FBS) and allowed to adhere overnight in a 37° C. humidified incubator. The following day, cells were treated with PROTACs in a 12-point concentration curve (top final concentration of 300 nM with subsequent concentrations being 3-fold less with […] being the lowest concentration in the assay). Each PROTAC was tested independently in two experiments on 96-well plates. After 24 hours, media was removed and lysis buffer was added to the wells. Following lysis, Bright-Glo™ Luciferase Assay Substrate (Promega, Madison WI) was added and the luciferase activity was measured using a Cytation 3 plate reader (BioTek™, Winooski, VT). Each compound was assayed in duplicate and the activity was calculated as […] using GraphPad Prism software (San Diego, CA).

[3] = biological target: T1, estrogen receptor-alpha (ERα) (Homo sapiens (Human), UniProt P03372); experiment: Estrogen receptor-alpha (ERα) degradation assay in T47D cells; details: % degraded, 5 day incubation, read-out: ER Degradation Dmax
[4] = biological target: T1, estrogen receptor-alpha (ERα); experiment: Estrogen receptor-alpha (ERα) degradation assay in MCF7 cells (In-Cell Western / western blot); details: % degraded, read-out: ER Degradation Dmax
Method: 2. Estrogen Receptor-Alpha (ERα) Degradation Assay in MCF-7 Cells Using Western Blot Method for Table 5
The exemplary novel ERα degraders were assessed for their activity in degrading ERα in MCF-7 cells via western blot. The assay was carried out in the presence of 10% FBS or high percentage of human or mouse serum. Protocols of the western blot assay are described below.
MCF7 cells were grown in DMEM/F12 with 10% FBS and seeded at 24,000 cells per well in 100 μl into 96-well clear tissue culture plates. The following day, the cells were treated with PROTACs in a […] concentration curve with 100 nM being the top concentration and serial dilutions to make the other concentrations (30 nM, 10 nM. 3 nM, 1 nM, and 0.3 nM). At all concentrations, 0.01% DMSO is the final concentration in the well. The following day, the plates are aspirated, washed with 50 μl of cold PBS. The cells are lysed with 50 μl/well 4° C. Cell Lysis Buffer (Catalog #9803; Cell Signaling Technology, Danvers, MA) (20 mM Tris-HCL (pH 7.5), 150 mM NaCl, 1 mM Na2EDTA, 1 mM EGTA, 1% Triton, 2.5 mM sodium pyrophosphate, 1 mM B-glycerophosphate, 1 mM sodium vanadate, 1 μg/ml leupeptin). Lysates were clarified at 16,000× g for 10 minutes, and 2 μg of protein was subjected to SDS-PAGE analysis and followed by immunoblotting according to standard protocols. The antibodies used were ERα (Cell Signaling, Technologies Catalog #8644), and Tubulin (Sigma Catalog #T9026; St. Louis, MO). Detection reagents were Clarity Western ECL substrate (Bio-Rad Catalog 4170-5060; Hercules, CA).
Alternatively, MCF7 cells were grown in DMEM/F12 with 10% FBS and seeded at 24,000 cells per well in 500 μl in 24-well clear tissue culture plates. The following day, the cells were treated with PROTACs in a 5-point concentration curve (100 nM, 33 nM, 11 nM, 3.7 nM, and 1.2 nM) in the presence of 0.01% DMSO. After 72 hours, the wells are aspirated and washed with 500 μl of PBS. The cells are lysed with 100 μl/well 4° C. Cell Lysis Buffer (Catalog #9803; Cell Signaling Technology, Danvers, MA) (20 mM Tris-HCL (pH 7.5), 150 mM NaCl, 1 mM Na2EDTA, 1 mM EGTA, 1% Triton, 2.5 mM sodium pyrophosphate, 1 mM B-glycerophosphate, 1 mM sodium vanadate, 1 ug/ml leupeptin). Lysates were clarified at 16,000× g for 10 minutes, and 2 μg of protein was subjected to SDS-PAGE analysis and followed by immunoblotting according to standard protocols. The antibodies used were ERα (Cell Signaling Technologies Catalog #8644), and Tubulin (Sigma Catalog #T9026; St. Louis, MO). Detection reagents were Clarity Western ECL substrate (Bio-Rad Catalog 4170-5060; Hercules, CA).
3. Estrogen receptor-alpha (ERα) degradation assay using In-Cell Western™ Assay for Table 5
Degradation of ERα by claimed compounds were determined in MCF7 cells using an In-Cell Western™ assay. Briefly, MCF7 cells were plated in 96-well plates (2000 cells per well in 100 μl media) and incubated at 37° C. under an atmosphere of 5% CO2 in a humidified incubator overnight. One-hundred (100) μl of media containing test compound (at 2× concentration) was added to the appropriate wells to provide 11 serially decreasing concentrations (top final concentration, 1 μM then 3-fold less for the next 10 concentrations); a vehicle control (DMSO) was also added for each compound. For each experiment, all compounds were assayed in duplicate plates. Cells were then incubated for 3 or 5 days in the above-mentioned environment. The assay was terminated by removal of media, a single wash with ice-cold PBS and the addition of […] paraformaldehyde (PFA: 4% in PBS). After 15 minutes in PFA at room temperature, the cells were permeabilized in Tris-phosphate-buffered saline with Tween (0.1%) (TBST) supplemented with Triton X-100 (0.5%) for 15 minutes. Cells were then blocked in BSA (TBST with BSA, 3%) for one hour. […] The cells were incubated overnight at 4° C. […]

T1 sequence (P03372 whole entry): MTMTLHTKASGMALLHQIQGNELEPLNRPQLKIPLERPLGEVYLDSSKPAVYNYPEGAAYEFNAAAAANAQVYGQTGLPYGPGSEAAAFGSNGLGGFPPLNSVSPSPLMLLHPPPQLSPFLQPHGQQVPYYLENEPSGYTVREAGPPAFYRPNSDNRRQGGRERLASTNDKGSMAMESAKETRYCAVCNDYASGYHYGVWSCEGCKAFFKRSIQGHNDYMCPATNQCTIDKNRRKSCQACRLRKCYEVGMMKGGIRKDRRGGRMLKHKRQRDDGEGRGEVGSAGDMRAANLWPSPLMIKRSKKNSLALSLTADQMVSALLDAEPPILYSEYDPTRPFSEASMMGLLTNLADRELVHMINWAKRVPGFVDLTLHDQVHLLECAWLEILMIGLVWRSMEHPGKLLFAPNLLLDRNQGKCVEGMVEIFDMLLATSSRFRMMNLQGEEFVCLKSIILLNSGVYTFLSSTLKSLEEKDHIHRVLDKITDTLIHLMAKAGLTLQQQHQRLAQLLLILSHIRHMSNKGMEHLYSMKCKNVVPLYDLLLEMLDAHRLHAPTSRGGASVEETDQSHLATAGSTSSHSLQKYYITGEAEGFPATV

## Cc1sc2c(c1C)C(c1ccc(Cl)cc1)=NC(CC(=O)NCCCOCCCOc1ccc3ncc(-n4ccc(=O)[nH]c4=O)cc3c1)c1nnc(C)n1-2 (stereo not drawn) [PROTAC-1, 2-(4-(4-chlorophenyl)-2,3,9-trimethyl-6H-thieno[3,2-f] [1,2,4]triazolo[4,3-a][1,4]diazepin-6-yl)-N-(3-(3-((3-(2,4-dioxo-3,4-dihydropyrimidin-1(2H)-yl)quinolin-6-yl)oxy)propoxy)propyl)acetamide]
[1]
  IC50: ≥ 0.1 µM

## O=C1CCC(N2CC(Oc3cccc(C4CCN(CCCOc5ccc([C@H]6c7ccc(O)cc7CC[C@H]6c6ccccc6)cc5)CC4)c3)=CC2=O)C(=O)N1 (mixture of isomers) [PROTAC-105, rac-3-(4-(3-(1-(3-(4-((1R,2S)-6-hydroxy-2-phenyl-1,2,3,4-tetrahydronaphthalen-1-yl)phenoxy)propyl)piperidin-4-yl)phenoxy)-2-oxo-2,5-dihydro-1H-pyrrol-1-yl)piperidine-2,6-dione]
[2]
  IC50: 0.001 to 0.01 µM
[3]
  Dmax: ≤ 50%

## O=C1CCC(N2CC(Oc3cccc(C4CCN(CCCCOc5ccc([C@@H]6c7ccc(O)cc7CC[C@@H]6c6ccccc6)cc5)CC4)c3)=CC2=O)C(=O)N1 (mixture of isomers) [PROTAC-104, rac-3-(4-(3-(1-(4-(4-((1R,2S)-6-hydroxy-2-phenyl-1,2,3,4-tetrahydronaphthalen-1-yl)phenoxy)butyl)piperidin-4-yl)phenoxy)-2-oxo-2,5-dihydro-1H-pyrrol-1-yl)piperidine-2,6-dione]
[2]
  IC50: 0.001 to 0.01 µM
[3]
  Dmax: ≤ 50%

## CCN(C(=O)c1ccc(N2CCN(CCCCCOc3ccc([C@@H]4c5ccc(O)cc5CC[C@@H]4c4ccccc4)cc3)CC2)cc1OC)C1CCC(=O)NC1=O (mixture of isomers) [PROTAC-92, rac-N-(2,6-dioxopiperidin-3-yl)-N-ethyl-4-(4-(5-(4-((1R,2S)-6-hydroxy-2-phenyl-1,2,3,4-tetrahydronaphthalen-1-yl)phenoxy)pentyl)piperazin-1-yl)-2-methoxybenzamide]
[3]
  Dmax: ≤ 50%

## O=C1CCC(N2CC(Oc3cccc(C4CCN(CCCOc5ccc([C@@H]6c7ccc(O)cc7CC[C@@H]6c6ccccc6)cc5)CC4)c3)=CC2=O)C(=O)N1 (stereo partly drawn) [PROTAC-106, 3-(4-(3-(1-(3-(4-((1R,2 S)-6-hydroxy-2-phenyl-1,2,3,4-tetrahydronaphthalen-1-yl)phenoxy)propyl)piperidin-4-yl)phenoxy)-2-oxo-2,5-dihydro-1H-pyrrol-1-yl)piperidine-2,6-dione]
[2]
  IC50: < 0.001 µM
[3]
  Dmax: ≤ 50%

## O=C1CCC(N2CC(Oc3cccc(C4CCN(CCCCOc5ccc([C@H]6c7ccc(O)cc7CC[C@H]6c6ccccc6)cc5)CC4)c3)=CC2=O)C(=O)N1 (mixture of isomers) [PROTAC-109, rac-3-(4-(3-(1-(4-(4-((1R,2S)-6-hydroxy-2-phenyl-1,2,3,4-tetrahydronaphthalen-1-yl)phenoxy)butyl)piperidin-4-yl)phenoxy)-2-oxo-2,5-dihydro-1H-pyrrol-1-yl)piperidine-2,6-dione]
[2]
  IC50: ≥ 0.1 µM
[3]
  Dmax: ≤ 50%

## O=C1CCC(n2ncc(Oc3ccc(N4CCN(CCOc5ccc([C@H]6c7ccc(O)cc7CC[C@H]6c6ccc(F)cc6)cc5)CC4)nc3)cc2=O)C(=O)N1 (mixture of isomers) [PROTAC-95, rac-3-(4-((6-(4-(2-(4-((1R,2S)-2-(4-fluorophenyl)-6-hydroxy-1,2,3,4-tetrahydronaphthalen-1-yl)phenoxy)ethyl)piperazin-1-yl)pyridin-3-yl)oxy)-6-oxopyridazin-1(6H)-yl)piperidine-2,6-dione]
[2]
  IC50: ≥ 0.1 µM
[4]; 3 day incubation
  Dmax: ≤ 50%

## Cc1nc2c(OCCN3CCN(CCOc4ccc(Oc5c(-c6ccc(Br)cc6)sc6cc(O)ccc56)cc4)CC3)cccc2c(=O)n1C1CCC(=O)NC1=O (stereo not drawn) [PROTAC-108, 3-(8-(2-(4-(2-(4-((2-(4-bromophenyl)-6-hydroxybenzo[b]thiophen-3-yl)oxy)phenoxy)ethyl)piperazin-1-yl)ethoxy)-2-methyl-4-oxoquinazolin-3(4H)-yl)piperidine-2,6-dione]
[2]
  IC50: 0.001 to 0.01 µM
[4]; 3 day incubation
  Dmax: ≤ 50%

## O=C1CCC(NC(=O)c2ccc(N3CCN(CCCCCOc4ccc([C@@H]5c6ccc(O)cc6CC[C@@H]5c5ccccc5)cc4)CC3)cn2)C(=O)N1 (mixture of isomers) [PROTAC-91, rac-N-(2,6-dioxopiperidin-3-yl)-5-(4-(5-(4-((1R,2S)-6-hydroxy-2-phenyl-1,2,3,4-tetrahydronaphthalen-1-yl)phenoxy)pentyl)piperazin-1-yl)picolinamide]
[2]
  IC50: 0.001 to 0.01 µM
[4]; 5 day incubation
  Dmax: > 75%

## CN(C(=O)c1ccc(N2CCN(CCCCCOc3ccc([C@@H]4c5ccc(O)cc5CC[C@@H]4c4ccccc4)cc3)CC2)cc1)C1CCC(=O)NC1=O (mixture of isomers) [PROTAC-90, rac-N-(2,6-dioxopiperidin-3-yl)-4-(4-(5-(4-((1R,2S)-6-hydroxy-2-phenyl-1,2,3,4-tetrahydronaphthalen-1-yl)phenoxy)pentyl)piperazin-1-yl)-N-methylbenzamide]
[2]
  IC50: 0.001 to 0.01 µM
[4]; 5 day incubation
  Dmax: > 75%
